Activity calls are given as the source filed them. No cut-off for these calls is given here.
Key:
Mus musculus [1] = organism: Mus musculus; assay: Inhibition of LPS-stimulated NFkappaB DNA binding activity in mouse RAW264.7 cells assessed pre-incubated for 3 hrs before LPS-stimulation for 60 mins by ELISA; type: cell-based
RAW264.7 [2] = assay: Anti-inflammatory activity in mouse RAW264.7 cells assessed as reduction in LPS-induced nitric oxide production pre-incubated for 3 hrs before LPS-stimulation for 24 hrs by Griess reagent based ELISA; type: functional, cell-based
BV-2 [3] = assay: Anti-inflammatory activity in mouse BV2 cells assessed as reduction in LPS-induced nitric oxide production pre-incubated for 3 hrs before LPS-stimulation for 24 hrs by Griess reagent based ELISA; type: functional, cell-based
RAW264.7 [4] = assay: Anti-inflammatory activity in mouse RAW264.7 cells assessed as reduction in LPS-induced PGE2 production pre-incubated for 3 hrs before LPS-stimulation for 24 hrs; type: functional, cell-based
BV-2 [5] = assay: Anti-inflammatory activity in mouse BV2 cells assessed as reduction in LPS-induced PGE2 production pre-incubated for 3 hrs before LPS-stimulation for 24 hrs; type: functional, cell-based
RAW264.7 [6] = assay: Cytotoxicity in mouse RAW264.7 cells at 10 to 80 uM by MTT assay; type: cell-based; details: raw264.7, 80 µM
BV-2 [7] = assay: Cytotoxicity in mouse BV2 cells at 10 to 80 uM by MTT assay; type: cell-based; details: bv-2, 80 µM
RAW264.7 [8] = assay: Inhibition of LPS-stimulated iNOS protein expression in mouse RAW264.7 cells pre-incubated for 3 hrs before LPS-stimulation for 24 hrs by Western blot method; type: functional, cell-based
RAW264.7 [9] = assay: Inhibition of LPS-stimulated COX2 protein expression in mouse RAW264.7 cells pre-incubated for 3 hrs before LPS-stimulation for 24 hrs by Western blot method; type: functional, cell-based
BV-2 [10] = assay: Inhibition of LPS-stimulated iNOS protein expression in mouse BV2 cells pre-incubated for 3 hrs before LPS-stimulation for 24 hrs by Western blot method; type: functional, cell-based
BV-2 [11] = assay: Inhibition of LPS-stimulated COX2 protein expression in mouse BV2 cells pre-incubated for 3 hrs before LPS-stimulation for 24 hrs by Western blot method; type: functional, cell-based
Mus musculus [12] = organism: Mus musculus; assay: Inhibition of LPS-stimulated NFkappaB signalling activation in mouse RAW264.7 cells assessed as reduction in IkappaB phosphorylation pre-incubated for 3 hrs before LPS-stimulation for 60 mins by Western blot method; type: cell-based
Mus musculus [13] = organism: Mus musculus; assay: Inhibition of LPS-stimulated NFkappaB signalling activation in mouse BV2 cells assessed as reduction in IkappaB phosphorylation pre-incubated for 3 hrs before LPS-stimulation for 60 mins by Western blot method; type: cell-based
Mus musculus [14] = organism: Mus musculus; assay: Inhibition of LPS-stimulated NFkappaB p65/p50 nuclear translocation in mouse RAW264.7 cells assessed as increase in cytosolic p65/p50 protein level at 10 to 40 uM pre-incubated for 3 hrs before LPS-stimulation for 60 mins by Western blot method; type: cell-based
Mus musculus [15] = organism: Mus musculus; assay: Inhibition of LPS-stimulated NFkappaB p65/p50 nuclear translocation in mouse BV2 cells assessed as increase in cytosolic p65/p50 protein level at 10 to 40 uM pre-incubated for 3 hrs before LPS-stimulation for 60 mins by Western blot method; type: cell-based
Mus musculus [16] = organism: Mus musculus; assay: Inhibition of LPS-stimulated NFkappaB DNA binding activity in mouse BV2 cells assessed pre-incubated for 3 hrs before LPS-stimulation for 60 mins by ELISA; type: cell-based
RAW264.7 [17] = assay: Anti-inflammatory activity in mouse RAW264.7 cells assessed as reduction in LPS-induced TNFalpha mRNA expression pre-incubated for 3 hrs before LPS-stimulation for 12 hrs by RT-qPCR method; type: functional, cell-based
RAW264.7 [18] = assay: Anti-inflammatory activity in mouse RAW264.7 cells assessed as reduction in LPS-induced IL-1beta mRNA expression pre-incubated for 3 hrs before LPS-stimulation for 12 hrs by RT-qPCR method; type: functional, cell-based
RAW264.7 [19] = assay: Anti-inflammatory activity in mouse RAW264.7 cells assessed as reduction in LPS-induced IL6 mRNA expression pre-incubated for 3 hrs before LPS-stimulation for 12 hrs by RT-qPCR method; type: functional, cell-based
RAW264.7 [20] = assay: Anti-inflammatory activity in mouse RAW264.7 cells assessed as reduction in LPS-induced IL12 mRNA expression pre-incubated for 3 hrs before LPS-stimulation for 12 hrs by RT-qPCR method; type: functional, cell-based
BV-2 [21] = assay: Anti-inflammatory activity in mouse BV2 cells assessed as reduction in LPS-induced TNFalpha mRNA expression pre-incubated for 3 hrs before LPS-stimulation for 12 hrs by RT-qPCR method; type: functional, cell-based
BV-2 [22] = assay: Anti-inflammatory activity in mouse BV2 cells assessed as reduction in LPS-induced IL-1beta mRNA expression pre-incubated for 3 hrs before LPS-stimulation for 12 hrs by RT-qPCR method; type: functional, cell-based
BV-2 [23] = assay: Anti-inflammatory activity in mouse BV2 cells assessed as reduction in LPS-induced IL6 mRNA expression pre-incubated for 3 hrs before LPS-stimulation for 12 hrs by RT-qPCR method; type: functional, cell-based
BV-2 [24] = assay: Anti-inflammatory activity in mouse BV2 cells assessed as reduction in LPS-induced IL12 mRNA expression pre-incubated for 3 hrs before LPS-stimulation for 12 hrs by RT-qPCR method; type: functional, cell-based

- IC50 (RAW264.7 [2]): 23.5 µM
- IC50 (BV-2 [3]): 21.9 µM
- IC50 (RAW264.7 [4]): 22.8 µM
- IC50 (BV-2 [5]): 27.6 µM
Compound: C/C=C/[C@@H]1C=CC(=O)[C@H](O)[C@]12C(=O)O[C@H](C)[C@@H]2O
- inhibition (Mus musculus [1]): Dose-dependent effect
- inhibition (RAW264.7 [2]): Dose-dependent effect
- inhibition (BV-2 [3]): Dose-dependent effect
- Activity (RAW264.7 [6]): Non-Toxic
- Activity (BV-2 [7]): Non-Toxic
- inhibition (RAW264.7 [8]): Dose-dependent effect
- inhibition (RAW264.7 [9]): Dose-dependent effect
- inhibition (BV-2 [10]): Dose-dependent effect
- inhibition (BV-2 [11]): Dose-dependent effect
- inhibition (Mus musculus [12]): Dose-dependent effect
- inhibition (Mus musculus [13]): Dose-dependent effect
- inhibition (Mus musculus [14]): Active
- inhibition (Mus musculus [15]): Active
- inhibition (Mus musculus [16]): Dose-dependent effect
- inhibition (RAW264.7 [17]): Dose-dependent effect
- inhibition (RAW264.7 [18]): Dose-dependent effect
- inhibition (RAW264.7 [19]): Dose-dependent effect
- inhibition (RAW264.7 [20]): Dose-dependent effect
- inhibition (BV-2 [21]): Dose-dependent effect
- inhibition (BV-2 [22]): Dose-dependent effect
- inhibition (BV-2 [23]): Dose-dependent effect
- inhibition (BV-2 [24]): Dose-dependent effect

Reference: ChEMBL document CHEMBL4033729, “Penicillospirone from a marine isolate of Penicillium sp. (SF-5292) with anti-inflammatory activity” (Bioorg Med Chem Lett, 2017)
